Assay [1] concerns nAChR receptor. The assay is described as follows: Nicotine-induced CGRP release in mouse trachea tissue (ELISA). Type of assay: cell-based. The conditions noted are these: for Maximal nicotinic response (CGRP release, time course): trachea tissue pretreated with nicotine, then enantiomer, FIG. 2; for CGRP release versus nicotine alone: trachea samples exposed to nicotine plus test substance, FIG. 1b. As for the experimental part:
(§1) CGRP is a sensory biomarker of neurons that mediate information to the brain. CGRP release can be detected in vitro using whole trachea tissue by exposing the tissue to a stimulatory compound. A standard ELISA assay may then be used to measure the release of CGRP. The active ingredient was tested using a mouse trachea model.
In order to determine whether a specific enantiomer of the active ingredient show greater efficacy, time course experiments were conducted in which trachea tissue samples were pretreated with nicotine and exposed to either the (−) or (+) enantiomer of camphor.
(§2) (FIG. 3a). […] Calcium-imaging experiments were performed on mouse nodose/jugular Ggl neurons with images captures at 340 and 380 nm over time. (FIG. 3b). […] (FIG. 3b). […] (FIG. 3c). […] (FIG. 3c). […] (FIG. 3d).

The subject of another assay is TRPV1 channel. Description: Heat (45° C.)-induced CGRP release in tracheal samples. The conditions noted are these: FIG. 6; for Heat-induced CGRP release with test substance: 45° C. The assay is classed as cell-based, mouse.
The target of assay [2] is T1, TRPA1 channel (Mus musculus, UniProt Q8BLA8). The assay is described as follows: Acrolein-induced CGRP release in mouse trachea tissue. Type of assay: cell-based. Further details: CGRP release can be detected in vitro using whole trachea tissue; from tissue; host or cells: mouse trachea. The conditions noted are these: FIG. 7; for CGRP release versus acrolein alone: trachea samples exposed to acrolein plus test substance. The method, then:
as §1
(FIG. 7). […] (FIG. 7). […] (FIG. 7).

Assay [3] deals with nAChR receptor. The assay is described as follows: Epibatidine-induced CGRP release in tracheal tissue. The assay is classed as cell-based, mouse.
Assay [4] concerns the target T1, TRPA1 channel. The assay is described as follows: TRPA1 irritant-stimulated iCGRP release in tracheal tissue samples. The assay is classed as cell-based. Further details: formalin-stimulated GCRP release in both skin and tracheal tissue samples; from tissue; host or cells: skin and tracheal tissue samples. The conditions noted are these: tracheal tissue samples with TRPA1 channel irritants; FIG. 9. As for the experimental part: (§3) Similar dosing experiments were performed using formalin, a TRPA1 channel […]. […] (FIG. 8). […] Thus, in some embodiments, active ingredients may be used that inhibit both the nicotinic acetylcholine receptors and the TRPA1 channel. […] (FIG. 9). […] (FIG. 9).

Assay [5] concerns mouse nodose/jugular Ggl neurons. The assay is described as follows: Calcium imaging (340 and 380 nm) of nicotine-stimulated neurons. Type of assay: cell-based. The conditions noted are these: FIG. 3b. As for the experimental part: as §2
Assay [6] relates to nicotinic acetylcholine receptors. The assay is described as follows: Nicotine-induced CGRP release in buccal mucosa tissue samples. The assay is classed as cell-based, mouse. The text has this: Active ingredients appropriate for use in embodiments described herein may also include isoborneol.
Assay [7] addresses T1, TRPA1 channel. The assay is described as follows: Formalin-stimulated CGRP release in skin and tracheal tissue samples. Type of assay: cell-based. Further details: formalin-stimulated GCRP release in both skin and tracheal tissue samples; from tissue; host or cells: skin and tracheal tissue samples. The following applies: FIG. 8. The method, then:
as §3

The subject of a further assay is acetylcholine receptors. The conditions noted are these: adrenal gland cells; cited from earlier work.
In the next assay the test system is tracheal tissue samples. The assay is described as follows: Total particulate matter (TPM)-stimulated CGRP release in tracheal tissue samples. Type of assay: cell-based. The conditions noted are these: FIG. 10. The text has this:
To assess the potential of camphor on GCRP release stimulated by cigarette smoking, tracheal tissue samples were exposed to total particulate matter (TPM) containing the same amount of nicotine as in the nicotine alone experiment. […] (FIG. 10). […] (FIG. 10). The results observed in the TPM experiments are similar to those seen in experiments in which nicotine is used alone. (FIG. 10).

The test system of another assay is nerve fibers. The conditions noted are these: isolated mouse trachea model; cited from earlier work.
[8] abbreviates: tracheal samples of normal mice.
Where [9] appears, read: tracheal samples of TRPV1 knockout mice.

Structures are written as SMILES. “Also recorded” adds a separate entry of the source.

T1 sequence (Q8BLA8 whole entry): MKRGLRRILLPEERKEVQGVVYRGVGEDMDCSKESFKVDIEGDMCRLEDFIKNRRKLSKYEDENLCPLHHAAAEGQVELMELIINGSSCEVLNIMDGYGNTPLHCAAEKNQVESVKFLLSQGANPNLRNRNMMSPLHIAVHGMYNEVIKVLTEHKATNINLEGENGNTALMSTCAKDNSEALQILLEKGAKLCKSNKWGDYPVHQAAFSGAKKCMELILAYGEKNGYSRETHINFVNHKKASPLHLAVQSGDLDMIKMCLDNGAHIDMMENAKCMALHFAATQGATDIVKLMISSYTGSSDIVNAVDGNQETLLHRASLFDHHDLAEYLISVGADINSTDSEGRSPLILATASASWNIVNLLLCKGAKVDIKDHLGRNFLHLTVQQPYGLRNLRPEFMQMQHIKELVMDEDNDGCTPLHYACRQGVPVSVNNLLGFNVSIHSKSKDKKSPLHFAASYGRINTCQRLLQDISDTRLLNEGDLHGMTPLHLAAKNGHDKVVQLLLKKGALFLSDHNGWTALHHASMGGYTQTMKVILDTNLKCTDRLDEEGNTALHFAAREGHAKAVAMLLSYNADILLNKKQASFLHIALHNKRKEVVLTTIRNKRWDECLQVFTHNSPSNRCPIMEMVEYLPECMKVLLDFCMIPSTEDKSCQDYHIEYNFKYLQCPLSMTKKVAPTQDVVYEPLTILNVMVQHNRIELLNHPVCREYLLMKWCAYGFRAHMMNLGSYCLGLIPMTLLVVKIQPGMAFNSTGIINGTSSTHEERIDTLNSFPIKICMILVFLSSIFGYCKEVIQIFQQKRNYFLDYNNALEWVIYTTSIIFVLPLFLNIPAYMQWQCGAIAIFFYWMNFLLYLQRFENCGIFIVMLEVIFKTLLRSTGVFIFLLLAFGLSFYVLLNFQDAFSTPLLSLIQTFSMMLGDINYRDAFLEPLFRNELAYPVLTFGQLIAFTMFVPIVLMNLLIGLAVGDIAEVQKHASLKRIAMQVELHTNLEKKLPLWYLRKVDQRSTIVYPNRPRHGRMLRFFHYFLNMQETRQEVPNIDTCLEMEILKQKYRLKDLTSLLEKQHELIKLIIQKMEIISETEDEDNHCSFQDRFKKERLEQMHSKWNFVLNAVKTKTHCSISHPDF

Regarding `CC1(C)[C@H]2CC[C@]1(C)C(=O)C2` (single isomer, unassigned) [(−) enantiomer of camphor], the “Maximal nicotinic response (CGRP release, time course)” value with nAChR receptor [1] is given as “effective at abolishing the maximal nicotinic response”.

`CC12CCC(CC1=O)C2(C)C` (single isomer, unassigned; (+)) [(+) enantiomer of camphor]: the “Maximal nicotinic response (CGRP release, time course)” value in the assay with nAChR receptor [1] is recorded as “effective at abolishing the maximal nicotinic response”.

Regarding `NCCOB(c1ccccc1)c1ccccc1` [2-APB], the “Heat-induced CGRP release with test substance” value (“Heat-induced CGRP release” below) with TRPV1 channel (setting [8]) is given as “increase CGRP release”.

Take `CC(C)(C)c1ccc(NC(=O)N2CCN(c3ncccc3Cl)CC2)cc1` [BCTC, reference compound]: the “CGRP release versus nicotine alone” value in the assay with nAChR receptor [1] is “did not show any significant reduction in CGRP release”.

`CC(C)c1ccc(NC(=O)Cn2cnc3c2c(=O)n(C)c(=O)n3C)cc1` [HC030031, reference compound]: the “CGRP release versus nicotine alone” value with nAChR receptor [1] is “did not show any significant reduction in CGRP release”. For the same molecule, the “CGRP release versus acrolein alone” value at TRPA1 channel [2] (FIG. 1c) is listed as “CGRP release was also reduced”.

For `CNC1(C)C2CCC(C2)C1(C)C` (stereo not shown) [Mecamylanine, reference compound], the “Epibatidine-induced CGRP release with inhibitor” value with nAChR receptor [3] (tracheal tissue, FIG. 3c) was “release of CGRP could be inhibited”.

`C=CC=O` [acrolein, reference compound]: the “CGRP release induced by the stimulus alone” value on TRPA1 channel [2] (trachea tissue, various concentrations, FIG. 1c) is on record as “cause CGRP release at various concentrations; also recorded: released increased amounts of CGRP when exposed to higher concentrations”.

As for `CC12CCC(CC1=O)C2(C)C` (stereo not shown) [camphor], on TRPA1 channel [4], the “TRPA1 channel mediated release of iCGRP with camphor” value is reported as “reduce the TRPA1 channel mediated release of iCGRP”. For the same molecule, the “Nicotine-stimulated calcium influx in combination with test substance” value in [5] was “not when given in combination with camphor”. In addition, in the assay on nAChR receptor [1] (mouse trachea, nicotine plus various concentrations of camphor, FIG. 3a), the “Dose dependence of anti-nicotinic effect (CGRP release)” value is on record as “CGRP release was decreased as the concentration of camphor was increased”. Besides, the “CGRP release versus nicotine alone” value with nAChR receptor [1] is “released less CGRP compared to samples exposed to nicotine alone”. Further, the “CGRP release after nicotine followed by test substance, versus nicotine alone” value in assay [6] (buccal mucosa time course, male mice showed stronger inhibition, FIGS. 5a and 5b) was “CGRP release was significantly lower”. Also, in assay [6] (buccal mucosa, TRPA1/TRPV1 double knockouts, FIG. 4), the “CGRP release with nicotine and camphor” value is given as “did not show a significant change in CGRP release”. For the same molecule, the “Effect of camphor at high formalin concentrations” value at TRPA1 channel [7] (both skin and tracheal tissue samples) is “could be overcome at high formalin concentrations”. Also, the “Formalin-stimulated CGRP release with camphor” value on TRPA1 channel [7] (skin tissue samples) and at TRPA1 channel [7] (tracheal tissue samples) was “decrease in formalin-stimulated GCRP release” throughout. Also, the “Epibatidine-induced CGRP release with camphor in absence of TRPA1” value with nAChR receptor [3] (tracheal samples from TRPA1 knockout mice, FIG. 3d) is reported as “effectively inhibited CGRP release; also recorded: marked reduction in CGRP release”. Moreover, the “Epibatidine-induced CGRP release with inhibitor” value with nAChR receptor [3] (tracheal tissue, FIG. 3c) is reported as “release of CGRP could be inhibited”. The “Heat-induced CGRP release” value in the assay on TRPV1 channel (setting [9]) and in the assay with TRPV1 channel (setting [8]) was “released comparable levels of CGRP relative to normal samples” throughout. In addition, in the assay with acetylcholine receptors, the Nor-epinephrine release result is given as “inhibit nor-epinephrine release from adrenal gland cells”. In addition, the “TPM-stimulated CGRP release with camphor” value in the assay with tracheal tissue samples is “largely blocked”. For the same molecule, the “CGRP release versus acrolein alone” value at TRPA1 channel [2] (FIG. 1c) is “decrease in CGRP release; also recorded: marked reduction in CGRP release”. In addition, the “CGRP release in camphor treated samples as acrolein concentration was increased” value on TRPA1 channel [2] (versus acrolein only at the same concentration) is “significantly lower levels of CGRP”. Also, the “Activation of nerve fibers induced by nicotine” value in the assay on nerve fibers was “effectively inhibit activation of nerve fibers”.

Regarding `Clc1ccc(C2CC3CCC2N3)cn1` (stereo not shown) [epibatidine, reference compound], the “CGRP release induced by the stimulus alone” value in the assay with nAChR receptor [3] (tracheal tissue, FIG. 3c) is recorded as “increased release of CGRP”.

Turning to `CCO` [ethanol], the “CGRP release in ethanol-treated TRPV1 knockout samples relative to ethanol-treated normal samples” value in the assay on TRPV1 channel (heat treated tracheal samples) came to 5 fold less. Moreover, the “Heat-induced CGRP release” value in the assay on TRPV1 channel (setting [9]) was “increase in CGRP release relative to untreated TRPV1 knockouts”; with TRPV1 channel (setting [8]) it was “increase CGRP release”.

For `CN1CCCC1c1cccnc1` (stereo not shown) [nicotine], the “Calcium influx, stimulus alone” value in [5] is listed as “stimulated calcium influx in Ggl neurons”. Also, in the assay with nAChR receptor [1] (mouse trachea, FIG. 1a), the “CGRP release induced by the stimulus alone” value was “induce the release of calcitonin gene-related peptide (CGRP)”. Moreover, the “CGRP release induced by nicotine alone” value is “did not respond to nicotine exposure by releasing similar amounts of CGRP relative to normal mice” in assay [6] (buccal mucosa, TRPA1/TRPV1 double knockout mice, FIG. 4); “released increased amounts of CGRP; also recorded: increased release of CGRP” in assay [6] (buccal mucosa, normal C57Bl/6 mice, FIG. 4, FIGS. 5a and 5b).
